Measurements: PubChem BioAssay AID248 (DTP/NCI, 2004)
Several values for one entry are separate records, joined by “and”; a condition that tells them apart may be missing. Identical values can stand only once. Toxic doses and inconclusive results are not listed.

System: L1210 leukemia ip in BDF1 mice, survival T/C
Experiment: NCI In Vivo Anticancer Drug Screen. Data for tumor model L1210 Leukemia (intraperitoneal) in B6D2F1 (BDF1) mice
Details: endpoint: mean survival time, higher = longer survival
Outline: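 Mice bearing the transplanted tumor received compound or vehicle. Survival of the treated group was divided by that of the vehicle-treated control group to give the ratio.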

[1] = dose: 50.0 mg/kg/injection, schedule: Q01DX009 (ip), vehicle: Klucel (hydroxypropylcellulose) (HPC)
[2] = dose: 100.0 mg/kg/injection, schedule: Q01DX009 (ip), vehicle: Klucel (hydroxypropylcellulose) (HPC)
[3] = dose: 100.0 mg/kg/injection, schedule: Q01DX001 (ip), vehicle: saline
[4] = dose: 200.0 mg/kg/injection, schedule: Q01DX001 (ip), vehicle: saline
[5] = dose: 400.0 mg/kg/injection, schedule: Q01DX001 (ip), vehicle: saline
[6] = dose: 200.0 mg/kg/injection, schedule: Q01DX009 (ip), vehicle: Klucel (hydroxypropylcellulose) (HPC)
[7] = dose: 400.0 mg/kg/injection, schedule: Q01DX009 (ip), vehicle: Klucel (hydroxypropylcellulose) (HPC)
[8] = dose: 100.0 mg/kg/injection, schedule: Q04DX003 (ip), vehicle: saline with Tween-80
[9] = dose: 200.0 mg/kg/injection, schedule: Q04DX003 (ip), vehicle: saline with Tween-80
[10] = dose: 400.0 mg/kg/injection, schedule: Q04DX003 (ip), vehicle: saline with Tween-80
[11] = dose: 100.0 mg/kg/injection, schedule: Q04DX003 (ip), vehicle: Klucel (hydroxypropylcellulose) (HPC)
[12] = dose: 200.0 mg/kg/injection, schedule: Q04DX003 (ip), vehicle: Klucel (hydroxypropylcellulose) (HPC)
[13] = dose: 400.0 mg/kg/injection, schedule: Q04DX003 (ip), vehicle: Klucel (hydroxypropylcellulose) (HPC)
[14] = dose: 100.0 mg/kg/injection, schedule: Q01DX001 (ip), vehicle: Klucel (hydroxypropylcellulose) (HPC)
[15] = dose: 200.0 mg/kg/injection, schedule: Q01DX001 (ip), vehicle: Klucel (hydroxypropylcellulose) (HPC)
[16] = dose: 100.0 mg/kg/injection, schedule: Q01DX009 (ip), vehicle: saline with Tween-80
[17] = dose: 100.0 mg/kg/injection, schedule: Q04DX002 (ip), vehicle: saline with Tween-80
[18] = dose: 200.0 mg/kg/injection, schedule: Q01DX009 (ip), vehicle: saline with Tween-80
[19] = dose: 200.0 mg/kg/injection, schedule: Q04DX002 (ip), vehicle: saline with Tween-80
[20] = dose: 400.0 mg/kg/injection, schedule: Q01DX009 (ip), vehicle: saline with Tween-80
[21] = dose: 400.0 mg/kg/injection, schedule: Q04DX002 (ip), vehicle: saline with Tween-80

With CC(C)(C)SCC(NC(=O)OCc1ccccc1)C(=O)O (stereo not drawn) the T/C [1] was 100 % of control, the T/C (dose: 75.0 mg/kg/injection, schedule: Q01DX001 (ip), vehicle: Klucel (hydroxypropylcellulose) (HPC)) was 91 % of control and the T/C [2] was 89 % of control. The T/C (dose: 150.0 mg/kg/injection, schedule: Q01DX001 (ip), vehicle: Klucel (hydroxypropylcellulose) (HPC)) was 94 % of control and the T/C (dose: 300.0 mg/kg/injection, schedule: Q01DX001 (ip), vehicle: Klucel (hydroxypropylcellulose) (HPC)) was 94 % of control.

In the case of Cc1cc(C(C)(C)C)ccc1S(=O)(=O)C1CC1c1ccccc1 (stereo not drawn), the T/C [3] is reported as 98 % of control, the T/C [4] is reported as 102 % of control and the T/C [5] is reported as 98 % of control.

For O=C(Nc1ccc(Nc2ccccc2)cc1)Nc1ccccc1F, the T/C [2] was 97 % of control, the T/C [6] was 95 % of control and the T/C [7] was 97 % of control.

For N#CC(C#N)=Cc1cc2c3c(c1)CCCN3CCC2, the T/C (dose: 50.0 mg/kg/injection, schedule: Q04DX003 (ip), vehicle: saline with Tween-80) was 103 % of control, the T/C [8] was 109 % of control and the T/C [9] was 92 % of control. For the same compound, the T/C [10] was 98 % of control.

In the case of CC1CN1P(=S)(Oc1ccccc1)N1CC1C (stereo not drawn), the T/C (dose: 7.0 mg/kg/injection, schedule: Q01DX015 (ip), vehicle: carboxymethylcellulose (CMC)) is reported as 94 % of control, the T/C (dose: 13.0 mg/kg/injection, schedule: Q01DX015 (ip), vehicle: carboxymethylcellulose (CMC)) is reported as 98 % of control and the T/C (dose: 25.0 mg/kg/injection, schedule: Q01DX015 (ip), vehicle: carboxymethylcellulose (CMC)) is reported as 97 % of control. For the same compound, the T/C (dose: 50.0 mg/kg/injection, schedule: Q01DX015 (ip), vehicle: carboxymethylcellulose (CMC)) was 91 % of control, the T/C [3] was 105 % of control and the T/C (dose: 100.0 mg/kg/injection, schedule: Q01DX015 (ip), vehicle: carboxymethylcellulose (CMC)) was 103 % of control. The T/C [4] was 102 % of control, the T/C (dose: 200.0 mg/kg/injection, schedule: Q01DX015 (ip), vehicle: saline) was 95 % of control and the T/C [5] was 100 % of control. The T/C (dose: 400.0 mg/kg/injection, schedule: Q01DX015 (ip), vehicle: saline) was 91 % of control, the T/C (dose: 800.0 mg/kg/injection, schedule: Q01DX001 (ip), vehicle: saline) was 95 % of control and the T/C (dose: 1600.0 mg/kg/injection, schedule: Q01DX001 (ip), vehicle: saline) was 103 % of control.

CC(=O)Nc1cc(Cl)cc2c1-c1c(Cl)cc(Cl)cc1C2=O was tested, and the T/C (dose: 100.0 mg/kg/injection, schedule: Q01DX009 (ip), vehicle: saline) was 98 % of control, the T/C [11] was 94 % of control and the T/C [12] was 94 % of control. The T/C [13] was 91 % of control.

For Cc1cc(C(=O)O)c(C)n1-c1ccccc1C(=O)O, the T/C [1] was 102 % of control, the T/C [14] was 103 % of control and the T/C [2] was 89 % of control. The T/C [15] was 92 % of control, the T/C [6] was 93 % of control and the T/C (dose: 400.0 mg/kg/injection, schedule: Q01DX001 (ip), vehicle: Klucel (hydroxypropylcellulose) (HPC)) was 94 % of control.

Cc1ccc2ccc3ccc4ccccc4c3c2c1 was tested, and the T/C (dose: 50.0 mg/kg/injection, schedule: Q01DX001 (ip), vehicle: Klucel (hydroxypropylcellulose) (HPC)) was 101 % of control, the T/C [14] was 95 % of control and the T/C [15] was 101 % of control.

For CNC(=N)c1ccc(NC(=N)c2ccc(NC(=O)Nc3cccc(NC(=O)Nc4ccc(C(=N)Nc5ccc(C(=N)NC)cc5)cc4)c3)cc2)cc1, the T/C (dose: 0.31 mg/kg/injection, schedule: Q01DX015 (ip), vehicle: water) was 103 % of control, the T/C (dose: 0.62 mg/kg/injection, schedule: Q01DX015 (ip), vehicle: water) was 115 % of control and the T/C (dose: 1.0 mg/kg/injection, schedule: Q01DX Z (ip), vehicle: water) was 154 % of control. For the same compound, the T/C (dose: 2.0 mg/kg/injection, schedule: Q01DX Z (ip), vehicle: water) was 158 % of control, the T/C (dose: 3.5 mg/kg/injection, schedule: Q01DX Z (ip), vehicle: water) was 150 % of control and the T/C (dose: 4.0 mg/kg/injection, schedule: Q01DX Z (ip), vehicle: water) was 150 % of control. The T/C (dose: 5.0 mg/kg/injection, schedule: Q01DX015 (ip), vehicle: water) was 162 % of control, the T/C (dose: 7.0 mg/kg/injection, schedule: Q01DX Z (ip), vehicle: water) was 172 % of control and the T/C (dose: 7.5 mg/kg/injection, schedule: Q01DX015 (ip), vehicle: water) was 203 % of control. For the same compound, the T/C (dose: 10.0 mg/kg/injection, schedule: Q01DX015 (ip), vehicle: water) was 241 % of control, the T/C (dose: 10.0 mg/kg/injection, schedule: Q01DX Z (ip), vehicle: water) was 236 % of control and the T/C (dose: 14.25 mg/kg/injection, schedule: Q01DX Z (ip), vehicle: water) was 193 % of control. For the same compound, the T/C (dose: 15.0 mg/kg/injection, schedule: Q01DX015 (ip), vehicle: water) was 340 % of control and the T/C (dose: 28.5 mg/kg/injection, schedule: Q01DX Z (ip), vehicle: water) was 92 % of control.

For C=COc1c(Cl)cc(Cl)cc1Cl, the T/C [16] was 93 % of control and 101 % of control, the T/C [17] was 105 % of control and 107 % of control and the T/C [18] was 101 % of control and 102 % of control. For the same compound, the T/C [19] was 97 % of control and 98 % of control, the T/C [20] was 100 % of control and 104 % of control and the T/C [21] was 94 % of control and 101 % of control.

O=C(NC1CCCCC1)OC/C=C\c1ccccc1 was tested, and the T/C [2] was 101 % of control, the T/C [11] was 101 % of control and the T/C [6] was 98 % of control. The T/C [12] was 96 % of control, the T/C [7] was 109 % of control and the T/C [13] was 102 % of control.

With CN1NC(=O)CC1c1ccccc1 (stereo not drawn) the T/C (dose: 100.0 mg/kg/injection, schedule: Q04DX002 (ip), vehicle: Klucel (hydroxypropylcellulose) (HPC)) was 93 % of control, the T/C (dose: 200.0 mg/kg/injection, schedule: Q04DX002 (ip), vehicle: Klucel (hydroxypropylcellulose) (HPC)) was 97 % of control and the T/C (dose: 400.0 mg/kg/injection, schedule: Q04DX002 (ip), vehicle: Klucel (hydroxypropylcellulose) (HPC)) was 100 % of control.

For O=C(NCCNC(=O)c1cccnc1)c1ccncc1, the T/C (dose: 100.0 mg/kg/injection, schedule: Q04DX003 (ip), vehicle: acetone) was 95 % of control, the T/C (dose: 200.0 mg/kg/injection, schedule: Q04DX003 (ip), vehicle: acetone) was 105 % of control and the T/C (dose: 400.0 mg/kg/injection, schedule: Q04DX003 (ip), vehicle: acetone) was 106 % of control.

Oc1c(Br)cc(Nc2c3ccccc3nc3ccccc23)cc1Br was tested, and the T/C [17] was 100 % of control, the T/C [19] was 95 % of control and the T/C [21] was 100 % of control.

In the case of CCCCCCCCCCCCCCCCCCC1=NCCN1, the T/C (dose: 2.34 mg/kg/injection, schedule: Q01DX009 (ip), vehicle: saline) is reported as 101 % of control, the T/C (dose: 4.68 mg/kg/injection, schedule: Q01DX009 (ip), vehicle: saline) is reported as 96 % of control and the T/C (dose: 9.37 mg/kg/injection, schedule: Q01DX009 (ip), vehicle: saline) is reported as 86 % of control. For the same compound, the T/C (dose: 18.75 mg/kg/injection, schedule: Q04DX003 (ip), vehicle: saline) was 90 % of control and the T/C (dose: 75.0 mg/kg/injection, schedule: Q01DX001 (ip), vehicle: acetone) was 97 % of control.

For O/N=C\CCC/C=N/O, the T/C [2] was 98 % of control, the T/C [11] was 100 % of control and the T/C [6] was 91 % of control. For the same compound, the T/C [12] was 94 % of control and the T/C [13] was 103 % of control.

In the case of Cc1cccc(Cl)c1NC(=O)CCC(=O)O, the T/C [3] is reported as 101 % of control, the T/C [4] is reported as 101 % of control and the T/C [5] is reported as 95 % of control.

NC(c1ccccc1)C(C(=O)O)C(=O)O (stereo not drawn) was tested, and the T/C (dose: 75.0 mg/kg/injection, schedule: Q04DX003 (ip), vehicle: saline) was 95 % of control, the T/C (dose: 150.0 mg/kg/injection, schedule: Q04DX003 (ip), vehicle: saline) was 94 % of control and the T/C (dose: 300.0 mg/kg/injection, schedule: Q04DX003 (ip), vehicle: saline) was 95 % of control.

O=C(Oc1ccccc1)c1ccccc1Cl was tested, and the T/C [2] was 102 % of control, the T/C [16] was 96 % of control and the T/C [11] was 96 % of control. For the same compound, the T/C [8] was 100 % of control, the T/C [6] was 98 % of control and the T/C [18] was 101 % of control. For the same compound, the T/C [12] was 96 % of control, the T/C [9] was 100 % of control and the T/C [7] was 95 % of control. The T/C [20] was 97 % of control, the T/C [13] was 98 % of control and the T/C [10] was 110 % of control.
